Test results reported in publication PMC8001995, “Sea Anemone Kunitz-Type Peptides Demonstrate Neuroprotective Activity in the 6-Hydroxydopamine Induced Neurotoxicity Model” (Biomedicines, 2021).

Key:
Neuro-2a cells [1] = assay: 6-Hydroxydopamine-induced cytotoxicity (neuroprotection), MTT; assay type: cell-based, murine; details: 25 µM 6-OHDA 24 h, no peptide; versus control
Protocol: (§1) Neuro-2a neuroblastoma cells (ATCC® CCL-131™) were obtained from American Type Culture Collection (Manassas, VA, USA). The cells were cultivated in DMEM medium (BioloT, St. Petersburg, Russia) supplemented with 10% of fetal bovine serum (BioloT, Russia) and 1% penicillin/streptomycin (BioloT, St. Petersburg, Russia) at 37 °C and 5% CO2. Initially, cells were incubated in cultural flasks until sub-confluent (~80%). For testing, Neuro-2a cells were seeded in 96-well plates and experiments were started after 24 h.
Neuro-2a cells were seeded at 1 × 10^4 cells/well in 96-well plates for studying of neuroprotective activity of peptides. The tested peptides were added to the cell monolayer and cells were incubated at 37 °C for 1 h. Then, the cells were exposed to 6-OHDA (Sigma-Aldrich, St. Louis, MO, USA) at 25 µM for 24 h at 37 °C with 5% CO2. Thereafter, the medium was replaced with clean serum-free medium, and the number of viable cells was determined by MTT assay. Neuro-2a cells were cultured without test compound or neurotoxins as the control group. Results were expressed in percentage of control as the mean ± SEM of three independent replicates.

Neuro-2a cells [2] = assay: Intracellular ROS level, DCFH-DA probe, 6-OHDA-treated cells; assay type: cell-based, murine; details: 25 µM 6-OHDA 30 min, no peptide
Protocol: as §1
The level of intracellular ROS was measured using the ROS sensitive dye, 2,7-dichloro-fluorescein diacetate (DCFH-DA), as a probe. In brief, Neuro-2a cells were seeded in 96-well plates at 1 × 10^4 cells/well, culturing in the presence or absence of various concentrations of tested peptides for 1 h, and then 6-OHDA (25 µM) was added in each well for 30 min at 37 °C with 5% CO2. […] The fluorescence of 2,7-dichlorofluorescein (DCF) was detected with PHERAstar FS fluorescent plate reader (BMG Labtech, Ortenberg, Germany) at λex = 485 nm and λem = 518 nm. […] The cytoprotective effect of peptides and the increase in cell viability under their action was calculated as a percentage, taking the cell viability treated with 6-OHDA as 100%.

[3] = DPPH radical scavenging cell free assay; details: 10 µM compound, 30 min, absorbance 520 nm, versus MeOH control, mean ± SEM of three independent replicates
Protocol: The 2,2-diphenyl-1-picryl-hydrazyl-hydrate (DPPH) radical scavenging activity was tested as described previously. The compound solutions (120 µL) were dispensed into wells of a 96-well microplate. The DPPH (Sigma-Aldrich, Germany) was dissolved in MeOH at concentration of 7.5 µM and the solution (30 µL) was added to each well. The concentrations of tested compounds in the mixtures were 10 µM. The mixtures were shaken and left for 30 min. The absorbance of the resulting solutions was measured at λ = 520 nm with a MultiscanFC plate reader (Thermo Fisher Scientific, Waltham, MA, USA). The scavenging of the DPPH radical in comparison with control (MeOH) (%) was calculated for each compound. Ascorbic acid at 10 µM was used as positive control.

SMILES | Viability of Neuro-2a cells treated with 6-OHDA (Neuro-2a cells [1]) [%] | ROS level in 6-OHDA-treated cells (Neuro-2a cells [2]) | Scavenging of DPPH Radicals [3] [%]
NCCc1cc(O)c(O)cc1O [Peptide 6-OHDA, 6-hydroxydopamine] | 42.6 | up to 130 % to the control level | 
O=C1O[C@H]([C@@H](O)CO)C(O)=C1O [Ascorbic acid] |  |  | 33.8 ± 2.4
